Source: US10183047B2, “Chromium-containing compositions in combination with Phyllanthus emblica and shilajit having synergistic effects for improving endothelial function and cardiovascular health” (Natreon, Inc., priority 2014, dated 2019)

Legend:
Format in all cases: in vivo, human
[1] = test system: Glycosylated Hemoglobin A1c (HbA1c); test: Glycosylated hemoglobin A1c, type 2 diabetics; details: for HbA1c (Abs.): DM, 400 mcg, absolute change; for Absolute change in HbA1c / HbA1c Post Tt / HbA1c Pre Tt: type 2 diabetics (Example 3), chromium products 400 mcg; for Absolute change in HbA1c: after 12 weeks treatment; for HbA1c Post Tt: post-treatment, 12 weeks; for HbA1c Pre Tt: pre-treatment
Protocol: The present clinical study is a prospective, randomized, double blind, placebo-controlled study. Patients of either sex, aged 30-65 years, fasting plasma glucose of 110-126 mg/dl, a glycosylated hemoglobin (HbA1c) between 6.5% and 8% and taking stable dose of anti-diabetic treatment (metformin 1500-2000 mg/day) for the past 8 weeks prior to the screening visit; and having endothelial dysfunction defined as ≤6% change in reflection index (RI) on post salbutamol challenge test were included in the study. Patients with severe uncontrolled hyperglyceamia, uncontrolled hypertension, cardiac arrhythmia, impaired hepatic or renal function, history of malignancy or stroke, smoking, chronic alcoholism, any other serious disease requiring active treatment and treatment with any other herbal supplements, were excluded from the study.
After screening, all the eligible subjects were randomized to receive either one of the three treatments orally for duration of 12 weeks—Group1—one capsule of Crominex®3+, 200 mcg once daily, Group 2—one capsule Crominex®3+, 400 mcg once daily; Group 3—one capsule of placebo once daily.
Subjects were required for follow up at 4, 8 and 12 weeks of therapy. At each visit they were evaluated for efficacy and safety. Pharmacodynamic evaluation for endothelial function was conducted at every visit. Blood samples were collected for evaluation of biomarkers before and at the end of treatment. Safety lab investigations for hematological, hepatic and renal biochemical parameters were conducted before and at the end of the study and also as and when required (in case of any adverse drug reaction (ADR). Subjects were enquired for the presence of ADR and the same was recorded in the case report form. Compliance to therapy was assessed by pill count method.
All the subjects had undergone complete physical examination, safety lab evaluations at baseline and at the end of the treatment. Samples were collected after an overnight fast of 12 hrs after the last dose of medication for determination of hemoglobin, glycosylated hemoglobin (HbA1c), blood urea, serum creatinine, liver function, lipid profile (Total cholesterol, High density lipoprotein cholesterol (HDL-C), low density lipoprotein cholesterol (LDL-C) using appropriate standard techniques.
(§1) When the results with Crominex® 3+ in the above two examples were highly significant, especially with the 400 mcg once daily dose in type 2 diabetics, two more clinical studies (EXAMPLES 3 & 4) were conducted at the same institute, following the same methodology as described earlier, on the individual components of Crominex® 3+, i.e., chromium chloride and Phyllanthus emblica+Shilajit, and other chromium supplements available in the market, i.e., chromium picolinate, chromium polynicotinate and chromium dinicocysteinate, in type 2 diabetics as well as in subjects with metabolic syndrome symptoms.

[2] = test system: high sensitivity C-reactive protein (hsCRP); test: hsCRP by ELISA, metabolic syndrome subjects; design: hsCRP Pre Tt / hsCRP Post Tt: unit not given here; details: for hsCRP: MS, 400 mcg; for Mean percentage change in hsCRP / hsCRP Post Tt / hsCRP Pre Tt: metabolic syndrome subjects (Example 4), chromium products 400 mcg; for Mean percentage change in hsCRP: after 12 weeks treatment; for hsCRP Post Tt: after 12 weeks of treatment; for hsCRP Pre Tt: pre-treatment
Protocol: (§2) Nitric oxide, MDA, Glutathione and levels were estimated spectrophotometrically as follows. Malondialdehyde (MDA) levels were determined as described in Vidyasagar, et al., “Oxidative stress and antioxidant status in acute organophosphorous insecticide poisoning,” Indian J. Pharmacol. (April 2004) 36(2): 76-79. Glutathione levels were determined as described in G. L. Ellman, Arch. Biochem. Biophys. (1959) 82: 70-77 (original determination). Nitric oxide levels were estimated spectrophotometrically as described in Miranda, et al., “A Rapid, Simple Spectrophotometric Method for Simultaneous Detection of Nitrate and Nitrite,” NITRIC OXIDE: Biology and Chemistry (2001) Vol. 5, No. 1, pp. 62-71. hsCRP (high sensitivity C-reactive protein) was determined by ELISA method.
Patients included in the study, were of either gender, aged 30-68 years, having endothelial dysfunction defined as ≤6% change in reflection index (RI) on post salbutamol challenge test and central obesity as defined by The International Diabetes Federation guidelines, dated 2006, and any two of the following conditions: […]
(§3) Subjects were reviewed for follow up at 4 weeks, 8 and 12 weeks of therapy. At each visit they were evaluated for efficacy and safety. Pharmacodynamic evaluation for endothelial function was conducted at baseline and end of treatment. Blood samples were collected for evaluation of biomarkers before and at end of treatment. Safety lab investigations for hematological, hepatic and renal biochemical parameters were conducted before and at the end of the study and also as and when required (in case of any adverse drug reaction (ADR)). Subjects were enquired for the presence of ADR and the same was recorded in the case report form. Compliance to therapy was assessed by pill count method.
(§4) Assessment of endothelial function, biomarkers, safety parameters and primary and secondary efficacy parameters and data analysis were performed as described under the study with type 2 diabetic subjects in Example 1.
as §1

malondialdehyde (MDA) = test: Malondialdehyde level, metabolic syndrome subjects; details: for MDA: MS, 400 mcg; for MDA Post Tt / Mean percentage change in MDA / MDA Pre Tt: metabolic syndrome subjects (Example 4), chromium products 400 mcg; for MDA Post Tt: after 12 weeks of treatment; for Mean percentage change in MDA: after 12 weeks treatment; for MDA Pre Tt: pre-treatment
Protocol: as §2
(§5) Patients included in the study, were of either gender, aged 30-68 years, having endothelial dysfunction defined as ≤6% change in reflection index (RI) on post salbutamol challenge test and central obesity as defined by The International Diabetes Federation guidelines, dated 2006, and any two of the following conditions:
(§6) After screening, all the eligible subjects were randomized to receive either one of the three treatments orally for duration of 12 weeks: group 1—one capsule of Crominex®3+ 200 mcg once daily; group 2—one capsule 400 mcg once daily; group 3—one capsule of Placebo once daily.
as §3, §4, §1

[3] = Blood pressure, metabolic syndrome subjects; details: metabolic syndrome subjects (Example 4), chromium products 400 mcg; for Diastolic blood pressure Post Tt / Systolic blood pressure Post Tt: after 12 weeks of treatment; for Diastolic blood pressure Pre Tt / Systolic blood pressure Pre Tt: pre-treatment
Source text: as §5, §6, §3, §1

Molecule	HbA1c (Abs.) [1]	Absolute change in HbA1c [1]	HbA1c Post Tt [1] [NS %]	HbA1c Pre Tt [1] [%]	hsCRP [2] [%]	Mean percentage change in hsCRP [2] [%]	MDA (malondialdehyde (MDA)) [%]	MDA Post Tt (malondialdehyde (MDA)) [nM/ml]	Mean percentage change in MDA (malondialdehyde (MDA)) [%]	MDA Pre Tt (malondialdehyde (MDA)) [nM/ml]	Diastolic blood pressure Post Tt [3] [NS mmHg]	Systolic blood pressure Post Tt [3] [NS mmHg]	Diastolic blood pressure Pre Tt [3] [mmHg]	Systolic blood pressure Pre Tt [3] [mmHg]	hsCRP Post Tt [2]	hsCRP Pre Tt [2]
O.O.O.O.O.O.[Cl][Cr]([Cl])[Cl] [Chromium chloride, Chromium chloride (CrCl3.6H2O)]	−0.02	−0.02 ± 0.10 #NS %	6.89 ± 0.16	6.91 ± 0.16	−11	−10.99 ± 3.29	−4.65	3.76 ± 0.42	−4.65 ± 1.95	3.94 ± 0.42	79.8 ± 2.66	122.9 ± 3.42	80.6 ± 2.67	124.7 ± 3.35		
chromium dinicocysteinate	−0.01	−0.01 ± 0.07 #NS %	7.10 ± 0.08	7.11 ± 0.08	−13.76	−13.76 ± 4.64	−6.7	3.74 ± 0.42	−6.67 ± 1.47	4.00 ± 0.42	78.8 ± 2.67	122.0 ± 2.66	80.0 ± 2.99	124.8 ± 3.37	2.24 ± 0.49	2.58 ± 0.48
chromium picolinate	−0.02	−0.02 ± 0.08 #NS %	7.03 ± 0.15	7.05 ± 0.11	−19.45	−19.45 ± 2.98	−7.1	3.60 ± 0.46	−7.14 ± 1.70	3.87 ± 0.47	78.1 ± 2.26	121.5 ± 4.15	79.2 ± 3.58	123.1 ± 5.39	2.15 ± 0.40	2.67 ± 0.44
chromium polynicotinate	−0.01	0.01 ± 0.10 #NS %	7.09 ± 0.13	7.08 ± 0.08	−12.34	−12.34 ± 2.16	−5.4	3.83 ± 0.41	−5.38 ± 1.31	4.04 ± 0.40	79.7 ± 2.85	124.1 ± 4.88	81.2 ± 3.07	125.9 ± 5.17	2.42 ± 0.54	2.76 ± 0.58
